{"source": "patent US10335411B2", "about": "“Administration of ubiquitin-activating enzyme inhibitor and radiation” (Millennium Pharmaceuticals, Inc., priority 2014, dated 2019)", "key": {"HN-13-0007 xenograft": {"system": "HN-13-0007 xenograft", "test": "HN-13-0007 xenograft model, Compound 1 and radiation", "type": "in vivo, mice", "conditions": "for Classification / Synergy score: through Day 24", "excerpt": "(§1) The HN-13-0007 xenograft model is a human primary head and neck lung cancer model. Approximately nine week old female BALB/c nude (Shanghai Sino-British SIPPR/BK Laboratory Animal Co., LTD.) mice were implanted subcutaneously with approximate 30 mm^3 HN-13-0007 tumor slices in the right flank. When the mean tumor volume reached approximately 130 mm^3, the animals were randomized into 10 treatment groups (n=8/group).\n(§2) Compound 1 [((1R,2R,3S,4R)-2,3-dihydroxy-4-(2-(3-(trifluoromethylthio) ? phenyl)pyrazolo[1,5-a]pyrimidin-7-ylamino)cyclopentyl)methyl sulfamate] is formulated in 10% HPbCD in sterile water and administered intravenously on days 0, 3, 7, 10, 14, 17 in the LU-01-0266 and HN-13-0007 models and on days 0, 3, 8, 11, 15, 18 in the ST-02-0004 model and in the second study with the LU-01-0030 model. Compound 1 formulation was prepared weekly and stored at room temperature in the dark.\n(§3) Beam-focused radiation was delivered using 2 Gray dosed on days 0, 1, 7, and 8 or on days 0, 3, 7, and 10 in the LU-01-0266 and HN-13-0007 models. In the ST-02-0004 model 2 Gray of radiation was delivered on days 0, 1, 3, and 8. A Rad Source RS-2000 X-ray irradiator was used for therapy (Rad Source). Before radiation, animals were anesthetized by i.p. injection using 1.0% sodium pentobarbital at 80 mg/kg (Vendor: Sigma). Focused radiation was applied to each mouse at 1 Gy/min.\n(§4) Tumors were measured twice weekly using vernier calipers. Tumor volumes were calculated using the following formula: (0.5×[length×width^2]). Treatment groups and dosing/treatment schedules are indicated in Tables 1a, 2a, 3a, 4a, and 5a below. Tumor size and body weight are measured approximately twice a week for the duration of the study. Mice are euthanized when their tumor volume reached approximately 1000 mm^3. Tumor growth continued to be monitored after the dosing period in some studies. In Tables 1a, 2a, 3a, 4a, and 5a tumor volumes are shown for HN-13-0014 (day 21), LU-01-0030 (day 21), the second LU-01-0030 study (day 20), LU-01-0266 (day 20), ST-02-0004 (day 21) and FIN-13-0007 (day 24), respectively. Average tumor volume is reported as a function of time for selected groups of selected studies.\n(§5) Measurements from day 0 to day 20, day 21 or day 24 are analyzed as specified in Tables below. All tumor volumes have a value of 1 added to them before log10 transformation. For each animal, the log tumor volume at day 0 is subtracted from the log tumor volume on the subsequent days. This difference vs. time is used to calculate an area under the curve (AUC) for each animal using the trapezoid rule. In instances when an animal in a treatment group is removed early from the study, the last observed tumor value is carried forward through all subsequent time points. The synergy score for the combination of agents A and B is defined as 100*(mean(AUCAB)−mean(AUCA)−mean(AUCB)+mean(AUCctl))/mean(AUCctl): where AUCAB, AUCA, AUCB, and AUCctl are the AUC values for animals in the combination group, the A group, the B group, and the control group, respectively. The standard error of the synergy score is computed based on the variation in the AUC values among the animals. […] If the P-value is above 0.05, then the combination is considered to be additive. If the P-value is below 0.05, and the synergy score is less than zero, then the combination is considered to be synergistic. If the P-value is below 0.05 and the synergy score was greater than zero, but the mean AUC for the combination was lower than the lowest mean AUC among the two single agent treatments, then the combination was sub-additive. If the P-value is below 0.05 and if the synergy score was greater than zero, and the mean AUC for the combination was greater than the mean AUC for at least one of the single agent treatments, then the combination was antagonistic."}, "ST-02-0004 xenograft": {"system": "ST-02-0004 xenograft", "test": "ST-02-0004 xenograft model, Compound 1 and radiation", "type": "in vivo, mice", "conditions": "for Classification / Synergy score: through Day 21", "excerpt": "as §1, with “ST-02-0004” for “HN-13-0007”, “gastric” for “head and neck lung”, “162” for “130”, “6” for “10”\nas §2, §3, §4, §5"}, "HCT-116 cells": {"system": "HCT-116 cells", "test": "In vitro colony formation assay", "type": "cell-based", "conditions": "after 10 days, replicate wells", "method": "General Method: HCT-116 cells are grown in McCoy's 5A Medium supplemented with 10% fetal bovine serum. Cells are seeded (200/well) on a 12-well plate. The next day cells are treated with increasing concentrations of Compound 1 (in medium) and 2 hours later irradiated with 0, 2 or 4 gray. After an additional 6 hour, medium is replaced with and without (washout condition) Compound 1. After 10 days the number of colonies is counted and recorded. Radiator used is an X-ray irradiator (MBR-1520R-3, Hitachi Power Solutions Co., Ltd.).\nTen days following initiation of treatment, the number of HCT-116 colonies per well is counted using GelCount™ (Oxford Optronix Ltd.) and the raw data results are indicated in Table 6."}, "[1]": {"conditions": "6.25 mg/kg Compound 1 + 2 Gy Radiation D0, 1, 7, 8"}, "[2]": {"conditions": "6.25 mg/kg Compound 1 + 2 Gy Radiation D0, 3, 7, 10"}, "[3]": {"conditions": "15 mg/kg Compound 1 + 2 Gy Radiation D0, 1, 7, 8"}, "[4]": {"conditions": "15 mg/kg Compound 1 + 2 Gy Radiation D0, 3, 7, 10"}, "[5]": {"conditions": "6.25 mg/kg compound 1 + 2 Gy Radiation D0, 1, 3, 8"}, "[6]": {"conditions": "15 mg/kg compound 1 + 2 Gy Radiation D0, 1, 3, 8"}}, "note": "Values joined by “and” are separate entries in the source; they are usually repeats but may differ in a detail not shown here. Identical values can stand only once.", "data": [{"smiles": "NS(=O)(=O)OC[C@H]1C[C@@H](Nc2ccnc3cc(-c4cccc(SC(F)(F)F)c4)nn23)[C@H](O)[C@@H]1O", "note": "[Compound 1, ((1R,2R,3S,4R)-2,3-dihydroxy-4-(2-(3-(trifluoromethylthio)phenyl)pyrazolo[1,5-a]pyrimidin-7-ylamino)cyclopentyl)methyl sulfamate]", "values": [{"measurement": "Tumor Volume Day 24", "setting": "HN-13-0007 xenograft; 6.25 mg/kg Compound 1 IV BIWx3 + 2 Gy Radiation Beam D 0, 1, 7, 8", "value": 318.8, "unit": "mm^3"}, {"measurement": "Tumor Volume Day 24", "setting": "HN-13-0007 xenograft; 6.25 mg/kg Compound 1 IV BIWx3 + 2 Gy Radiation Beam D 0, 3, 7, 10", "value": 340, "unit": "mm^3"}, {"measurement": "Tumor Volume Day 24", "setting": "HN-13-0007 xenograft; 6.25 mg/kg Compound 1 IV BIWx3 = D 0, 3, 7, 10, 14, 17, single agent", "value": 442.4, "unit": "mm^3"}, {"measurement": "Tumor Volume Day 24", "setting": "HN-13-0007 xenograft; 15 mg/kg Compound 1 IV BIWx3 + 2 Gy Radiation Beam D 0, 1, 7, 8", "value": 358.3, "unit": "mm^3"}, {"measurement": "Tumor Volume Day 24", "setting": "HN-13-0007 xenograft; 15 mg/kg Compound 1 IV BIWx3 + 2 Gy Radiation Beam D 0, 3, 7, 10", "value": 299.7, "unit": "mm^3"}, {"measurement": "Tumor Volume Day 24", "setting": "HN-13-0007 xenograft; 15 mg/kg Compound 1 IV BIWx3 = D 0, 3, 7, 10, 14, 17, single agent", "value": 362.1, "unit": "mm^3"}, {"measurement": "tumor growth inhibition, single agent", "setting": "HN-13-0007 xenograft; Compound 1 at 15 mg/kg as single agent", "value": "minimal tumor growth inhibition"}, {"measurement": "combination effect", "setting": "HN-13-0007 xenograft; Compound 1 with 2 Gy radiation", "value": "additive combination effect"}, {"measurement": "anti-tumor activity compared to the vehicle control", "setting": "HN-13-0007 xenograft; single agent, IV at 6.25 mg/kg for 3 weeks on Days 0, 3, 7, 10, 14, 17", "value": "no anti-tumor activity"}, {"measurement": "Classification", "setting": "HN-13-0007 xenograft; [1]", "value": "Additive (If the P-value is above 0.05, then the combination is considered to be additive)"}, {"measurement": "Synergy score", "setting": "HN-13-0007 xenograft; [1]", "value": "−20"}, {"measurement": "Classification", "setting": "HN-13-0007 xenograft; [2]", "value": "Additive (If the P-value is above 0.05, then the combination is considered to be additive)"}, {"measurement": "Synergy score", "setting": "HN-13-0007 xenograft; [2]", "value": "−24"}, {"measurement": "Classification", "setting": "HN-13-0007 xenograft; [3]", "value": "Additive (If the P-value is above 0.05, then the combination is considered to be additive)"}, {"measurement": "Synergy score", "setting": "HN-13-0007 xenograft; [3]", "value": 24}, {"measurement": "Classification", "setting": "HN-13-0007 xenograft; [4]", "value": "Additive (If the P-value is above 0.05, then the combination is considered to be additive)"}, {"measurement": "Synergy score", "setting": "HN-13-0007 xenograft; [4]", "value": "−13"}, {"measurement": "Tumor Volume Day 21", "setting": "ST-02-0004 xenograft; 6.25 mg/kg compound 1 IV BIWx3 + 2 Gy Radiation Beam D 0, 1, 3, 8", "value": 266.8, "unit": "mm^3"}, {"measurement": "Tumor Volume Day 21", "setting": "ST-02-0004 xenograft; 6.25 mg/kg compound 1 IV BIWx3 = D 0, 3, 8, 11, 15, 18, single agent", "value": 697.1, "unit": "mm^3"}, {"measurement": "Tumor Volume Day 21", "setting": "ST-02-0004 xenograft; 15 mg/kg compound 1 IV BIWx3 + 2 Gy Radiation Beam D 0, 1, 3, 8", "value": 178.2, "unit": "mm^3"}, {"measurement": "Tumor Volume Day 21", "setting": "ST-02-0004 xenograft; 15 mg/kg compound 1 IV BIWx3 = D 0, 3, 8, 11, 15, 18, single agent", "value": 755.2, "unit": "mm^3"}, {"measurement": "combination effect", "setting": "ST-02-0004 xenograft; Compound 1 at 6.25 mg/kg with 2 Gy of Radiation", "value": "additive combination effect"}, {"measurement": "combination effect", "setting": "ST-02-0004 xenograft; Compound 1 at 15 mg/kg with 2 Gy of Radiation", "value": "synergistic combination effect"}, {"measurement": "anti-tumor activity compared to the vehicle control", "setting": "ST-02-0004 xenograft; single agent, IV at 6.25 and 15 mg/kg for 3 weeks on Days 0, 3, 8, 11, 15 and 18", "value": "no significant anti-tumor activity"}, {"measurement": "Classification", "setting": "ST-02-0004 xenograft; [5]", "value": "Additive (If the P-value is above 0.05, then the combination is considered to be additive)"}, {"measurement": "Synergy score", "setting": "ST-02-0004 xenograft; [5]", "value": 10}, {"measurement": "Classification", "setting": "ST-02-0004 xenograft; [6]", "value": "Synergy (If the P-value is below 0.05, and the synergy score is less than zero, then the combination is considered to be synergistic)"}, {"measurement": "Synergy score", "setting": "ST-02-0004 xenograft; [6]", "value": "−49"}, {"measurement": "Number of Colonies/well", "setting": "HCT-116 cells; Washout No, Radiation 0 Gray, Compound 1 30 nM", "value": 0}, {"measurement": "Number of Colonies/well", "setting": "HCT-116 cells; Washout No, Radiation 0 Gray, Compound 1 100 nM", "value": 0}, {"measurement": "Number of Colonies/well", "setting": "HCT-116 cells; Washout No, Radiation 0 Gray, Compound 1 300 nM", "value": 0}, {"measurement": "Number of Colonies/well", "setting": "HCT-116 cells; Washout No, Radiation 2 Gray, Compound 1 30 nM", "value": 0}, {"measurement": "Number of Colonies/well", "setting": "HCT-116 cells; Washout No, Radiation 2 Gray, Compound 1 100 nM", "value": 0}, {"measurement": "Number of Colonies/well", "setting": "HCT-116 cells; Washout No, Radiation 2 Gray, Compound 1 300 nM", "value": 0}, {"measurement": "Number of Colonies/well", "setting": "HCT-116 cells; Washout No, Radiation 4 Gray, Compound 1 30 nM", "value": 0}, {"measurement": "Number of Colonies/well", "setting": "HCT-116 cells; Washout No, Radiation 4 Gray, Compound 1 100 nM", "value": 0}, {"measurement": "Number of Colonies/well", "setting": "HCT-116 cells; Washout No, Radiation 4 Gray, Compound 1 300 nM", "value": 0}, {"measurement": "Number of Colonies/well", "setting": "HCT-116 cells; Washout Yes, Radiation 0 Gray, Compound 1 30 nM", "value": "20 (2×) and 26"}, {"measurement": "Number of Colonies/well", "setting": "HCT-116 cells; Washout Yes, Radiation 0 Gray, Compound 1 100 nM", "value": "1 (2×) and 0"}, {"measurement": "Number of Colonies/well", "setting": "HCT-116 cells; Washout Yes, Radiation 0 Gray, Compound 1 300 nM", "value": 0}, {"measurement": "Number of Colonies/well", "setting": "HCT-116 cells; Washout Yes, Radiation 2 Gray, Compound 1 30 nM", "value": "3 and 7 and 6"}, {"measurement": "Number of Colonies/well", "setting": "HCT-116 cells; Washout Yes, Radiation 2 Gray, Compound 1 100 nM", "value": 0}, {"measurement": "Number of Colonies/well", "setting": "HCT-116 cells; Washout Yes, Radiation 2 Gray, Compound 1 300 nM", "value": 0}, {"measurement": "Number of Colonies/well", "setting": "HCT-116 cells; Washout Yes, Radiation 4 Gray, Compound 1 30 nM", "value": "1 (2×) and 4"}, {"measurement": "Number of Colonies/well", "setting": "HCT-116 cells; Washout Yes, Radiation 4 Gray, Compound 1 100 nM", "value": "0 (2×) and 1"}, {"measurement": "Number of Colonies/well", "setting": "HCT-116 cells; Washout Yes, Radiation 4 Gray, Compound 1 300 nM", "value": 0}]}]}
